Reference: ChEMBL document CHEMBL3301361, “Experimental in vitro DMPK and physicochemical data on a set of publicly disclosed compounds”

Assay: physchem
Conditions: octan-1-ol/water, pH 7.4, LogD7.4

logD	SMILES
3.1	COc1cccc(C(COCc2cc(C(F)(F)F)cc(C(F)(F)F)c2)N2CCNCC2)c1 (stereo unspecified)
3.05	CCN1CCN(CC(=O)Nc2ccc(-c3cccc4c(=O)cc(N5CCOCC5)oc34)c3sc4ccccc4c23)CC1
3	Fc1ccc(C(COCc2cc(C(F)(F)F)cc(C(F)(F)F)c2)N2CCNCC2)cc1 (stereo unspecified)
3.12	O=S(=O)(NCC(c1ccccc1)N1CCCCCC1)c1cccc(C(F)(F)F)c1 (stereo unspecified)
3.13	COc1ccc(S(=O)(=O)NCC(c2ccccc2)N2CCCCCC2)cc1 (stereo unspecified)
3	CC(C)Cn1c(=O)[nH]c(=O)c2c(C(=O)N3CCC3)c(Cc3ccccc3C(F)(F)F)sc21
3	CCCc1c(OCCCOc2ccc3c(=O)cc(C(=O)O)oc3c2CCC)ccc(C(C)=O)c1O
2.99	CNc1ccc2ncc(-c3cccc(O)c3)n2n1
3	COc1c(C#N)cc2ccccc2c1C(=O)N(C)C[C@@H](CCN1CCC(N2CCCNC2=O)CC1)c1ccc(Cl)c(Cl)c1
2.94	NC(=O)c1cnc(N[C@H]2CCCNC2)c2cc(-c3ccc(F)c(Cl)c3)sc12
3.07	O=C(COCc1cscn1)N1CCN(c2ccc(Cl)cc2Cl)CC1
2.96	Cc1cc(NC(=O)Nc2ccc(Cl)cc2)n(C)n1
3.1	CCN(C(=O)Nc1ccccc1)c1ccccc1
2.96	O=C(Cc1ccccn1)c1ccc(Cl)cc1
3.1	COc1cnc(-c2ccccn2)nc1Oc1ccc(F)cc1F
2.98	CC(O)(C(=O)Nc1ccc(S(=O)(=O)c2ccccc2)cc1)C(F)(F)F (stereo unspecified)
3.14	CCN1CCN(C(=O)c2cc3cc(Cl)ccc3[nH]2)CC1
3.01	CCOc1ccc(-c2cnc3n2CCCCC3)cc1
3.12	Nc1c2c(nc3ccc(Br)cc13)N(c1ccccc1)CC2
3.1	Nc1nc2ccc(-c3cccc(O)c3)cc2s1
2.95	CCCc1c(OCc2cccc(NC(=O)Cc3ccccc3C(=O)O)c2)ccc(C(C)=O)c1O
3	O=C1CCOc2nc(C#CC3CCCC3)ccc21

logD	SMILES
3.1	O=C1CCOc2nc(OCc3ccccc3)ccc21
3.1	CN1CCOc2cc(COC3CCCCC3)cnc21
3.15	CC[C@H](NC(=O)c1c(CC[S+](C)[O-])c(-c2ccccc2)nc2ccccc12)c1ccccc1 (stereo partly specified)
3.14	CC[C@H](NC(=O)c1c([S+](C)[O-])c(-c2cccc(F)c2)nc2ccccc12)c1ccccc1 (stereo partly specified)
3.07	CC[C@H](NC(=O)c1c([S+](C)[O-])c(-c2ccccc2)nc2cc(Cl)ccc12)c1ccccc1 (stereo partly specified)
3	O=C(NCc1ccccc1)c1cccnc1Oc1ccccc1
3.1	COc1cccc(Nc2ncnc3cc(OC)c(OC)cc23)c1
3	C#CC(C)(C)NC(=O)c1sccc1Oc1ccc(F)cc1[N+](=O)[O-]
3	FC(F)(F)c1nnc2ccc(N3CCCCC3)nn12
2.97	CSc1ccc(-c2nc(-c3ccc(F)cc3)c(-c3ccncc3)[nH]2)cc1
3.1	Cc1ncccc1Oc1ncnc(OC2C3COCC2CN(C(=O)OC(C)C)C3)c1C (stereo unspecified)
3.1	COc1cc(N2CCN(CCS(C)(=O)=O)CC2)ccc1Nc1ncc(Cl)c(-c2cnc3ccccn23)n1
3	COc1cc(N2CCN(C(C)=O)CC2)ccc1Nc1nccc(-c2cnc3ccccn23)n1
3.13	CN(C)c1nc(N[C@H]2CC[C@@H](NC(=O)c3ccc(F)c(F)c3)CC2)nc2ccccc12
2.94	CCOc1ccc(Oc2ccc(S(=O)(=O)NC(=O)c3cccc(-c4ccc(Cl)c(Cl)c4)c3)cc2)cc1
3.17	COc1ccc(C(=O)Nc2cc(NC(=O)c3cccc(N(C)C)c3)ccc2C)cc1
3.09	O=C(Cc1ccccc1)c1ccc(O)cc1O
3.1	CONC(=O)c1cnc(N2CCC(NC(=O)c3[nH]c(C)c(Cl)c3Cl)CC2)s1
2.96	CC(=O)N[C@@H]1CC2(CCN(Cc3ccc4[nH]c5ccccc5c4c3)CC2)c2ccccc21
2.96	CNc1c(Br)cnc2nc(-c3ccc(OCCCN4CCOCC4)cc3)[nH]c12
3.13	COc1ccc(-c2nc3c(NCCCNC(=O)C4CCCC4)c(C(N)=O)cnc3[nH]2)cc1
3.1	Nc1nc2nc(SCc3ccccc3)nc(N)c2s1

logD	SMILES
3.15	CN(C)C(=O)N[C@H]1CC[C@H](CCN2CCN(c3ccc(Cl)c(Cl)c3)CC2)CC1
3.01	Cc1ccc(-c2ncc[nH]2)cc1NC(=O)c1ccc(OCc2ccccn2)cc1
2.97	Cc1nc(-c2ccc(C)c(NC(=O)c3ccc(OCc4ccccn4)cc3)c2)c[nH]1
3.1	Cc1ccc(-c2ncc(CN3CCOCC3)s2)cc1NC(=O)c1ccc(OCc2ccccn2)cc1
2.94	CC(=O)Nc1ccc2c(c1)c(-c1cc(NC3CC3)n3ncc(C#N)c3n1)cn2C
3	C[C@@H]1CN(C(=O)OC(C)(C)C)CCN1c1ncc(OCc2ccc(S(C)(=O)=O)cn2)cn1
3	C[C@@H]1CN(C(=O)OCC(F)(F)F)CCN1c1ncc(OCc2ccncc2C#N)cn1
3	Cn1cc(C#N)cc1-c1c2c(=O)n(CCO)c(=O)n(CC3CC3)c2nn1Cc1ccnc2ccc(Cl)cc12
3.13	CCN(CC)CCOc1ccc(N(C)C(=O)c2ccc(-c3ccc(C(F)(F)F)cc3)cc2)cc1OC
2.94	COc1ccc(NC(=O)CSc2nnc(C)n2-c2ccc(C)cc2)cc1
2.98	COc1cc(OC2CCN(C)CC2)c2c(Nc3c(Cl)ccc4c3OCO4)ncnc2c1
2.94	O=C(NS(=O)(=O)c1cccc(C(F)(F)F)c1)N1CCC(N2CCC(Oc3ccc(Cl)c(Cl)c3)CC2)CC1
3.04	Cc1cn(C2CCCN(Cc3cccc(Oc4ccccc4)c3)C2)c(=O)[nH]c1=O (stereo unspecified)
3.15	CC(C)Cn1c(=O)n(C)c(=O)c2c(C(=O)N3C[C@H](O)CO3)c(Cc3ccccc3C(F)(F)F)sc21
3	Nc1ncccc1NCc1cccc(-c2cccnc2)c1
3.13	CN(C)S(=O)(=O)c1ccc2c(C(=O)NC[C@@H](O)CN3CCC(Oc4ccc(Cl)c(Cl)c4)CC3)c[nH]c(=O)c2c1
3.15	O=C(NC[C@@H](O)CN1CCC(Oc2ccc(Cl)c(Cl)c2)CC1)c1c[nH]c(=O)c2c(F)cccc12
3	Cc1cc(Cl)ccc1OC1CCN(C[C@H](O)CNC(=O)c2c[nH]c(=O)c3c(F)cccc23)CC1
3.15	O=C(NC[C@@H](O)CN1CCC(Oc2ccc(Cl)c(Cl)c2)CC1)c1c[nH]nc1C1CC1
3.09	N#Cc1cccc(OC[C@@H](O)CNC2CCN(Cc3ccc(Cl)c(Cl)c3)CC2)c1
3.1	COc1cc2ncnc(Nc3ccc(F)cc3)c2cc1OC
3.17	C[S+]([O-])CCN1C(=O)C(NC(=O)c2cc3cc(Cl)sc3[nH]2)Cc2ccccc21 (stereo unspecified)

logD	SMILES
2.95	COCCC(NC(=O)C1(N)CCN(c2ncnc3[nH]ccc23)CC1)c1ccc(Cl)cc1 (stereo unspecified)
3.05	O=C(NC1Cc2ccccc2N(CCO)C1=O)c1cc2cc(Cl)sc2[nH]1 (stereo unspecified)
3.1	COCCOc1ccc(Nc2ncc3cc(-c4ccncc4)ccc3n2)cc1
2.98	COCCC(=O)NC(C)c1ccc(Nc2ncc3cc(-c4ccncc4)ccc3n2)cc1 (stereo unspecified)
3.08	COCCC(=O)N[C@H](C)c1ccc(Nc2ncc3cc(-c4ccncc4)ccc3n2)cc1
3.05	COCCC(=O)N[C@@H](C)c1ccc(Nc2ncc3cc(-c4ccncc4)ccc3n2)cc1
3.1	CC(=O)NC(C)c1ccc(Nc2ncc3cc(-c4ccncc4)ccc3n2)cc1 (stereo unspecified)
3.02	C[C@@H](NC1=CC(=O)NCC1)c1ccc(Nc2ncc3cc(-c4ccncc4)ccc3n2)cc1
3.11	COc1cc2nc(Nc3ccc([C@@H](C)NC(C)=O)cc3)ncc2cc1-c1ccncc1
2.97	NS(=O)(=O)c1cccc(Nc2nccc(Nc3c(Cl)ccc4c3OCO4)n2)c1
3.1	COc1ccc(-c2cc(NC(=O)Cc3ccc4ccccc4c3)[nH]n2)cc1OC
3	COc1cccc([C@@H](C)NCCCc2ccccc2Cl)c1
3.13	COc1cc2ncnc(Nc3ccc(F)c(Cl)c3)c2cc1OCCCN1CCCC1
3.02	COc1ccc(-n2sc3ccccc3c2=O)cc1
3.02	CC(=O)NC[C@H]1CN(c2ccc(N3Cc4ccncc4C3)c(F)c2)C(=O)O1
3.12	CC(O)(C(=O)Nc1ccc(S(=O)(=O)c2ccc(F)cc2)cc1)C(F)(F)F (stereo unspecified)
3.1	O=C1NC(=O)c2cc(OCc3ccccc3)ccc21
3.1	Cc1ccc(NC(=O)c2cccc(N(C)C)c2)cc1NC(=O)c1ccc(OC(C)C)cc1
3.15	C[C@H](CO)Nc1nc(SCc2cccc(F)c2F)nc2nccnc12
3.12	COc1ccc(C(=O)Nc2cc(NC(=O)c3cccc(N(C)C)c3)ccc2C)cc1OC
3.05	CC(C)C(NC(=O)Cn1c(-c2cccnc2)ccc(NC(=O)OCc2ccccc2)c1=O)C(=O)C(F)(F)F (stereo unspecified)
3	CC(c1ccccc1)N1Cc2ccccc2C1=O (stereo unspecified)

logD	SMILES
3	CNC(=O)c1ccc(Nc2ncc(F)c(-c3cnc(C)n3C(C)C)n2)cc1
2.95	CNC(=O)c1ccc(Nc2nccc(-c3cnc(C)n3C(C)C)n2)cc1F
3.14	Cc1ncc(-c2nc(Nc3ccc(C(N)=O)c(F)c3)ncc2F)n1C(C)C
3.12	O=c1oc2ccc(O)cc2cc1-c1ccccc1
3.02	COc1ccc(N(C(=O)c2ccccc2)C(C)C(=O)NC2CCCC2)c(OC)c1 (stereo unspecified)
2.95	COc1cc2ncc(C(N)=O)c(Nc3ccc(F)cc3F)c2cc1OC
2.95	Cc1oc2cc(O)ccc2c(=O)c1-c1ccccc1
2.96	COC(=O)CCCC(=O)Nc1ccc2c(c1)-c1ccccc1C(=O)C2=O
3.11	Cc1ccc(NC(=O)c2cccc(C(F)(F)F)c2)cc1NC(=O)c1cccnc1
3.1	O=C1C(=O)c2cc(-c3ccsc3)ccc2-c2ccccc21
3.16	COc1cc2ncc(C(N)=O)c(Nc3cc(C)ccc3F)c2cc1OC
3.12	O=C(CC1CCN(Cc2ccn(-c3ccc(C(F)(F)F)cc3)c2)CC1)NC(c1ccc(F)cc1)c1c[nH]c(=O)c(Cl)c1 (stereo unspecified)
3.04	O=C(CC1CCN(Cc2ccn(-c3ccc(C(F)(F)F)cc3)c2)CC1)N(CCCO)Cc1ccc(F)cc1
3.04	O=C(CC1CCN(Cc2ccn(-c3ccc(C(F)(F)F)cc3)c2)CC1)NC(c1ccc(F)cc1)c1ccc(=O)[nH]c1 (stereo unspecified)
3.11	CCNc1nc(C#N)nc(Nc2ccccc2)n1
3.1	Oc1ccc(-c2ccc3cc(O)ccc3n2)cc1
3	O=c1oc2ccccc2cc1-c1ccc(O)cc1
3.07	C=CCNS(=O)(=O)c1ccc(NC(=O)[C@@](C)(O)C(F)(F)F)c(Cl)c1
